This passage reports Kd results from US20250368666A1, “INDAZOLE COMPOUNDS” (TYRA BIOSCIENCES, INC., priority 2022, published 2025).

Molecules are shown by their SMILES.

Common to all, as to assay: Kinase binding assay (kinase-tagged T7 phage, affinity beads, qPCR), Kd
One test has as its target T1, FGFR1 (Homo sapiens, UniProt P11362).
T1 construct: made in house; host or cells: E. coli (BL21-derived), T7 phage
As to conditions: read-out: FGFR1 (Kd nM). The gist of the method: (§1)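 Competition binding; kinase-tagged T7 phage lysate vs immobilised biotinylated ligand on streptavidin beads, 0.9% DMSO final. 11-pt 3-fold dilutions, 3 DMSO controls. qPCR of eluted kinase; Kd by Hill fit, slope −1.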

Another test has as its target T2, FGFR2 (Homo sapiens, UniProt P21802).
T2 construct: made in house; host or cells: E. coli (BL21-derived), T7 phage
The note with it: read-out: FGFR2 (Kd nM). The gist of the method:
as §1

For another test, the target named is T3, FGFR4 (Homo sapiens, UniProt P22455).
T3 construct: made in house; host or cells: E. coli (BL21-derived), T7 phage
T3 sequence (P22455 22-802): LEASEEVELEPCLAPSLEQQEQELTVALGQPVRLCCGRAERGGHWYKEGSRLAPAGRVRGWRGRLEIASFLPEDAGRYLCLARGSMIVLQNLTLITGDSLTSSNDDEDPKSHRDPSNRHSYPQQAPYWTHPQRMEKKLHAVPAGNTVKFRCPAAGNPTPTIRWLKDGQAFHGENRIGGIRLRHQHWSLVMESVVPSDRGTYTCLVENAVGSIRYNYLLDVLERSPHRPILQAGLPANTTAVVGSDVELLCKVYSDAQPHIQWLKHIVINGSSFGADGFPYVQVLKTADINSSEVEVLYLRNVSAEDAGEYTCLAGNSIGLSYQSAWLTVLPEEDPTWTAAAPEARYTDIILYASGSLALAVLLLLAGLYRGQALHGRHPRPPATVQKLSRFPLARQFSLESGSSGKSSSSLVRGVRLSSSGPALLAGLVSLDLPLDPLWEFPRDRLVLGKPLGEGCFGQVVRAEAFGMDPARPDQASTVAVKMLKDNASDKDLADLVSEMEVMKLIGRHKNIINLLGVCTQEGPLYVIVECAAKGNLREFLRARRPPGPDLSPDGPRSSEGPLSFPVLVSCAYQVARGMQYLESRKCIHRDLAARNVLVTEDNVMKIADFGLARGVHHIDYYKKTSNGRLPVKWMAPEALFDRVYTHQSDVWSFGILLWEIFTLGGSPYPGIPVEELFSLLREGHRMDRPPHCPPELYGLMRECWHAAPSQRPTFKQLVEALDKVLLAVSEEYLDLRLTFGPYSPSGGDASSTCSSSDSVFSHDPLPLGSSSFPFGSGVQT
The note with it: read-out: FGFR4 (Kd nM). The gist of the method: as §1

A further test deals with T4, FGFR3 (Homo sapiens, UniProt P22607).
T4 construct: made in house; host or cells: E. coli (BL21-derived), T7 phage
T4 sequence (P22607 23-806): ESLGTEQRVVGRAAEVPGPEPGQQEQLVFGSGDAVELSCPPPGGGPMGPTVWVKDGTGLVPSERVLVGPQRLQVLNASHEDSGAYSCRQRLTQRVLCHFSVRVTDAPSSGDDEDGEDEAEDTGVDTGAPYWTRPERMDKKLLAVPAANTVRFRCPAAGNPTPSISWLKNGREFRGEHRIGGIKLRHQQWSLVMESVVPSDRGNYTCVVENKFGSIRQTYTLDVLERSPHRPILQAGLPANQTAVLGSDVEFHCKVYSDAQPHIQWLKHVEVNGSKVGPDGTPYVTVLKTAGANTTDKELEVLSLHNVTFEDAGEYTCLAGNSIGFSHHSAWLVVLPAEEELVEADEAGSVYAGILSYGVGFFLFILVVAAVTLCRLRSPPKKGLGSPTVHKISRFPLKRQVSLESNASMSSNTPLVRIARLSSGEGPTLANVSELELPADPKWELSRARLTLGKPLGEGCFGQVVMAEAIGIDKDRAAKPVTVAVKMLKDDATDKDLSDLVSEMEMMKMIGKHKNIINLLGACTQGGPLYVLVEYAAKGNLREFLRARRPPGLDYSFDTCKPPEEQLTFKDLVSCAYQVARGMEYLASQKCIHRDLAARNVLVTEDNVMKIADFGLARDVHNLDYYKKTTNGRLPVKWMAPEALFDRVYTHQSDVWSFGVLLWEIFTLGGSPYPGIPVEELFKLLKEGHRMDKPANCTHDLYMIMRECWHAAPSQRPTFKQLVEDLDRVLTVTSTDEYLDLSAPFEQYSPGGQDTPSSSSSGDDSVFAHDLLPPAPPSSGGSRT
As to conditions: read-out: FGFR3 (Kd nM). The gist of the method:
as §1

A further test deals with T5, FGFR3 (V555M) (Homo sapiens, UniProt P22607, V555M).
T5 construct: made in house; host or cells: E. coli (BL21-derived), T7 phage
T5 sequence (P22607 23-806 V555M): as the sequence (P22607 23-806) above, with V533M counted along it
As to conditions: V555M mutant; read-out: FGFR3 (V555M) (Kd nM). The gist of the method: as §1

T2 sequence (P21802 22-821): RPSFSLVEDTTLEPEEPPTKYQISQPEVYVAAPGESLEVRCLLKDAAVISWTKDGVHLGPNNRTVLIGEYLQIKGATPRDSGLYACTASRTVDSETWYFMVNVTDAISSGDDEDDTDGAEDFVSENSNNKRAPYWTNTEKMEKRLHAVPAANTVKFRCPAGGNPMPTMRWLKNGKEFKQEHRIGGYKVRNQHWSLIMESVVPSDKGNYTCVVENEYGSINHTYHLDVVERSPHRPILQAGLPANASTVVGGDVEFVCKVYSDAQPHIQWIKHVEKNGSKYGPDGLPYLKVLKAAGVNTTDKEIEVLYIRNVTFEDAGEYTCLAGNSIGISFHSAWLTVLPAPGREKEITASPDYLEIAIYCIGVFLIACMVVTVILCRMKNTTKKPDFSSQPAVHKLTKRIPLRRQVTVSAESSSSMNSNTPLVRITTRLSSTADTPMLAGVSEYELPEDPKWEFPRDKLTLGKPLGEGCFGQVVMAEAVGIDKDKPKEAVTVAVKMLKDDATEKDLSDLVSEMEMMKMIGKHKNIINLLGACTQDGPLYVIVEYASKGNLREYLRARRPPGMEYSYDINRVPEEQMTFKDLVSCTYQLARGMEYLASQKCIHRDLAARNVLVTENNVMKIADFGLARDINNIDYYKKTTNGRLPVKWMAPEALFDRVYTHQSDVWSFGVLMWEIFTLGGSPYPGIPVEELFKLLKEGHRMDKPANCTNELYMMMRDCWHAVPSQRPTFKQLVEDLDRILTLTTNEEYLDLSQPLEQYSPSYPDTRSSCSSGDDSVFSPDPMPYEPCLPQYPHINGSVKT
T1 sequence (P11362 22-822): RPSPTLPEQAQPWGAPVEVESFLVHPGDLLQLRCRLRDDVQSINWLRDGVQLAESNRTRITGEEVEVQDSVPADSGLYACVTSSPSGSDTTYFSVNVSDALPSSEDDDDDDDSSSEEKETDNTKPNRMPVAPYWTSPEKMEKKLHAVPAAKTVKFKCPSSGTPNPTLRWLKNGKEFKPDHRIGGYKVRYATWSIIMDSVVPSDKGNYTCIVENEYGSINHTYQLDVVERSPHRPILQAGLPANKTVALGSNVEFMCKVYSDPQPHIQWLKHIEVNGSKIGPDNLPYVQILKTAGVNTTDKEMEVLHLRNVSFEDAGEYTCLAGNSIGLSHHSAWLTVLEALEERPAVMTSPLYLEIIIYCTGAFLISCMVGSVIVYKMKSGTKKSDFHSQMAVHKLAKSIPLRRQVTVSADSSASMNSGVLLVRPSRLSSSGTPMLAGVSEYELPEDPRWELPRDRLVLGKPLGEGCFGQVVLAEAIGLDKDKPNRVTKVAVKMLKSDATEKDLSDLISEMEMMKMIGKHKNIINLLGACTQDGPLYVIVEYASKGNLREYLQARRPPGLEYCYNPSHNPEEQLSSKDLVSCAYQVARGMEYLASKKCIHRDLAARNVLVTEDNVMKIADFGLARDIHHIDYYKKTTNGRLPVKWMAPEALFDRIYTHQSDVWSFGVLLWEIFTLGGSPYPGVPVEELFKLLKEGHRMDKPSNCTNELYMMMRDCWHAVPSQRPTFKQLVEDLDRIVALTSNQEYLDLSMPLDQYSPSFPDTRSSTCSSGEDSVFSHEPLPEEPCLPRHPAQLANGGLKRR

What is called Kd is the free concentration of one partner at which half of the binding sites on the other are occupied at equilibrium, for simple one-to-one binding. On to `C[C@@H](Oc1ccc2[nH]nc(-c3ccc(N4CC(C)(N5CCOCC5)C4)nc3)c2c1)c1c(Cl)cncc1Cl` [Example 94, 4-[1-[5-[5-[(1R)-1-(3,5-dichloro-4-pyridyl)ethoxy]-1H-indazol-3-yl]-2-pyridyl]-3-methyl-azetidin-3-yl]morpholine], for which the Kd on FGFR1, on FGFR2, at FGFR4, at FGFR3 and at FGFR3 (V555M) was 1 to 50 nM each time.

Take `C[C@@H](O)CNC1(C)CN(c2ncc(-c3n[nH]c4ccc(O[C@H](C)c5c(Cl)cncc5Cl)cc34)cc2F)C1` [Example 104, (R)-1-((1-(5-(5-((R)-1-(3,5-dichloropyridin-4-yl)ethoxy)-1H-indazol-3-yl)-3-fluoropyridin-2-yl)-3-methylazetidin-3-yl)amino)propan-2-ol]: the Kd at FGFR1, on FGFR2, on FGFR4, on FGFR3 and on FGFR3 (V555M) was 1 to 50 nM each time.

Turning to `C[C@@H](Oc1ccc2[nH]nc(-c3cnc(N4CC(C)(N5CCCC5)C4)c(F)c3)c2c1)c1c(Cl)cncc1Cl` [Example 107, (R)-5-(1-(3,5-dichloropyridin-4-yl)ethoxy)-3-(5-fluoro-6-(3-methyl-3-(pyrrolidin-1-yl)azetidin-1-yl)pyridin-3-yl)-1H-indazole], the dissociation constant (Kd) at FGFR1, on FGFR2, on FGFR4, on FGFR3 and on FGFR3 (V555M) was 1 to 50 nM each time.

On to `C[C@@H](Oc1ccc2[nH]nc(-c3cnc(N4CC(C)(NCC5(O)CC5)C4)c(C#N)c3)c2c1)c1c(Cl)cncc1Cl` [Example 120, (R)-5-(5-(1-(3,5-dichloropyridin-4-yl)ethoxy)-1H-indazol-3-yl)-2-(3-(((1-hydroxycyclopropyl)meth-yl)amino)-3-methylazetidin-1-yl)nicotinonitrile], for which the equilibrium dissociation constant (Kd) is 1 to 50 nM on FGFR1; 50 to 300 nM at FGFR2; 1 to 50 nM at FGFR4; 1 to 50 nM at FGFR3; 1 to 50 nM at FGFR3 (V555M).

Consider `C[C@@H](Oc1ccc2[nH]nc(-c3cnc(N4CC(C)(CP(C)(C)=O)C4)c(F)c3)c2c1)c1c(Cl)cncc1Cl` [Example 121, (R)-((1-(5-(5-(1-(3,5-dichloropyridin-4-yl)ethoxy)-1H-indazol-3-yl)-3-fluoropyridin-2-yl)-3-methylazetidin-3-yl)methyl)dimethylphos-phine oxide], for which the dissociation constant Kd at FGFR1, at FGFR2, at FGFR4, on FGFR3 and at FGFR3 (V555M) was 1 to 50 nM in each case.

Consider `C[C@@H](Oc1ccc2[nH]nc(-c3ccc(N4CC(C)(NCC(F)F)C4)nc3)c2c1)c1c(Cl)cncc1Cl` [Example 125, 1-[5-[5-[(1R)-1-(3,5-dichloro-4-pyridyl)ethoxy]-1H-indazol-3-yl]-2-pyridyl]-N-(2,2-difluoroethyl)-3-methyl-azetidin-3-amine], for which the Kd on FGFR1, at FGFR2, at FGFR4, at FGFR3 and at FGFR3 (V555M) was 1 to 50 nM throughout.

On to `C[C@@H](Oc1cc2c(-c3cnc(N4CC(C)(N(C)C)C4)c(F)c3)n[nH]c2cc1F)c1c(Cl)cncc1Cl` [Example 130, 1-[5-[5-[(1R)-1-(3,5-dichloro-4-pyridyl)ethoxy]-6-fluoro-1H-indazol-3-yl]-3-fluoro-2-pyridyl]-N,N,3-trimethyl-azetidin-3-amine], for which the dissociation constant Kd at FGFR1, at FGFR2, at FGFR4, at FGFR3 and on FGFR3 (V555M) was 1 to 50 nM each time.

For the molecule `C[C@@H](Oc1ccc2[nH]nc(-c3ccc(N4CC(C)(N5CC(C)(O)C5)C4)nc3)c2c1)c1c(Cl)cncc1Cl` [Example 157, 1-[1-[5-[5-[(1R)-1-(3,5-dichloro-4-pyridyl)ethoxy]-1H-indazol-3-yl]-2-pyridyl]-3-methyl-azetidin-3-yl]-3-methyl-azetidin-3-ol], the Kd at FGFR1, at FGFR2, at FGFR4, at FGFR3 and on FGFR3 (V555M) was 1 to 50 nM in each case.

`C[C@@H](Oc1ccc2[nH]nc(-c3cnc(N4CC(C)(C(=O)NCCO)C4)c(F)c3)c2c1)c1c(Cl)cncc1Cl` [Example 162, 1-[5-[5-[(1R)-1-(3,5-dichloro-4-pyridyl)ethoxy]-1H-indazol-3-yl]-3-fluoro-2-pyridyl]-N-(2-hydroxyethyl)-3-methyl-azetidine-3-carboxamide]: the Kd on FGFR1, on FGFR2, on FGFR4, at FGFR3 and at FGFR3 (V555M) was 1 to 50 nM each time.

With `C[C@@H](Oc1cc2c(-c3cnc(N4CC(C)(N5CCC5)C4)c(F)c3)n[nH]c2cc1F)c1c(Cl)cncc1Cl` [Example 163, 3-[6-[3-(azetidin-1-yl)-3-methyl-azetidin-1-yl]-5-fluoro-3-pyridyl]-5-[(1R)-1-(3,5-dichloro-4-pyridyl)ethoxy]-6-fluoro-1H-indazole], the equilibrium dissociation constant (Kd) on FGFR1, on FGFR2, on FGFR4, at FGFR3 and at FGFR3 (V555M) was 1 to 50 nM throughout.

For the molecule `COc1cc2[nH]nc(-c3cnc(N4CC(C)(NCCO)C4)c(F)c3)c2cc1O[C@H](C)c1c(Cl)cncc1Cl` [Example 164, (R)-2-((1-(5-(5-(1-(3,5-dichloro-pyridin-4-yl)ethoxy)-6-methoxy-1H-indazol-3-yl)-3-fluoropyridin-2-yl)-3-methylazetidin-3-yl)amino)ethan-1-ol], the Kd at FGFR1, at FGFR2, at FGFR4, on FGFR3 and at FGFR3 (V555M) was 1 to 50 nM in each case.

With `C[C@@H](Oc1cc2c(-c3cnc(N4CC(C)(NCCO)C4)c(F)c3)n[nH]c2cc1F)c1c(Cl)cncc1Cl` [Example 165], the Kd on FGFR1, on FGFR2, at FGFR4, on FGFR3 and on FGFR3 (V555M) was 1 to 50 nM throughout.

On to `C[C@@H](Oc1ccc2[nH]nc(-c3cnc(N4CC(C)(N5CCCC5)C4)c(F)c3)c2c1F)c1c(Cl)cncc1Cl` [Example 168, (R)-5-(1-(3,5-dichloropyridin-4-yl)ethoxy)-4-fluoro-3-(5-fluoro-6-(3-methyl-3-(pyrrolidin-1-yl)azetidin-1-yl)pyridin-3-yl)-1H-indazole], for which the Kd at FGFR1 fell in the range of 50 to 300 nM; on FGFR2, 50 to 300 nM; at FGFR4, 50 to 300 nM; on FGFR3 it was 1 to 50 nM; on FGFR3 (V555M), 1 to 50 nM.

For the molecule `C[C@@H](O)CNC1(C)CN(c2ncc(-c3n[nH]c4ccc(O[C@H](C)c5c(Cl)cncc5Cl)c(F)c34)cc2F)C1` [Example 169, (R)-1-((1-(5-(5-((R)-1-(3,5-dichloropyridin-4-yl)ethoxy)-4-fluoro-1H-indazol-3-yl)-3-fluoropyridin-2-yl)-3-methylazetidin-3-yl)amino)propan-2-ol], the Kd on FGFR1 was 300 to 1000 nM; at FGFR2, over 1000 nM; at FGFR4 it was 50 to 300 nM; at FGFR3 it was 50 to 300 nM; on FGFR3 (V555M) it was 1 to 50 nM.

For `C[C@@H](Oc1ccc2[nH]nc(-c3cnc(N4CC(C)(CP(C)(C)=O)C4)c(F)c3)c2c1F)c1c(Cl)cncc1Cl` [Example 172, (R)-((1-(5-(5-(1-(3,5-dichloro-pyridin-4-yl)ethoxy)-4-fluoro-1H-inda-zol-3-yl)-3-fluoropyridin-2-yl)-3-methylazetidin-3-yl)methyl)dimethyl-phosphine oxide], the Kd on FGFR1 is 300 to 1000 nM; at FGFR2, 50 to 300 nM; on FGFR4, 50 to 300 nM; at FGFR3, 50 to 300 nM; on FGFR3 (V555M) it was 1 to 50 nM.

Take `CC(C)NC1(C)CN(c2ccc(-c3n[nH]c4ccc(O[C@H](C)c5c(Cl)cncc5Cl)c(F)c34)cn2)C1` [Example 173, (R)-1-(5-(5-(1-(3,5-dichloropyridin-4-yl)ethoxy)-4-fluoro-1H-indazol-3-yl)pyridin-2-yl)-N-isopropyl-3-methylazetidin-3-amine]: the Kd is 300 to 1000 nM on FGFR1; 300 to 1000 nM on FGFR2; 300 to 1000 nM on FGFR4; 50 to 300 nM at FGFR3; 1 to 50 nM on FGFR3 (V555M).

Turning to `C[C@@H](Oc1ccc2[nH]nc(-c3cnc(N4CC(C)(NCC5CC5)C4)c(F)c3)c2c1F)c1c(Cl)cncc1Cl` [Example 174, (R)-N-(cyclo-propylmethyl)-1-(5-(5-(1-(3,5-dichloropyridin-4-yl)ethoxy)-4-fluoro-1H-indazol-3-yl)-3-fluoropyridin-2-yl)-3-methylazetidin-3-amine], the equilibrium dissociation constant (Kd) was 300 to 1000 nM on FGFR1; over 1000 nM on FGFR2; 50 to 300 nM on FGFR4; 50 to 300 nM on FGFR3; 50 to 300 nM on FGFR3 (V555M).

Regarding `C[C@@H](Oc1ccc2[nH]nc(-c3cnc(N4CC(C)(NCCO)C4)c(F)c3)c2c1F)c1c(Cl)cncc1Cl` [Example 175, (R)-2-((1-(5-(5-(1-(3,5-dichloro-pyridin-4-yl)ethoxy)-4-fluoro-1H-indazol-3-yl)-3-fluoropyridin-2-yl)-3-methylazetidin-3-yl)amino)ethan-1-ol], the dissociation constant Kd at FGFR1 is over 1000 nM; at FGFR2, over 1000 nM; at FGFR4 it was 50 to 300 nM; at FGFR3, 50 to 300 nM; on FGFR3 (V555M), 50 to 300 nM.
